Assay results: article PMC10347550, “Cyclic Ruthenium-Peptide Conjugates as Integrin-Targeting Phototherapeutic Prodrugs for the Treatment of Brain Tumors” (Journal of the American Chemical Society, 2023)

How the values were obtained:
[1] = Nanoaggregation in Opti-MEM by DLS and TEM; format: physicochemical; settings: 50 μM in Opti-MEM with 2.5% FCS, dark, 24 h (Figure S20)
Procedure: DLS was used to determine the distribution of particles in complex solutions (50 μM) in Opti-MEM (Gibco complete medium 11058-021, supplemented with 0.2% v/v penicillin/streptomycin (P/S), and 1% v/v glutamine) with or without 2.5% fetal calf serum (FCS) proteins via a ZEN1600 Zetasizer Nano instrument (Malvern Instruments Limited) operated with a 633 nm laser.
The TEM experiments were carried out with a TEM JEOL 1010:100 kV transmission electron microscope using a Formvar/carbon-coated copper grid (Polysciences Inc.). For the preparation of samples, a 1 mM stock aqua solution was diluted to 50 μM by Opti-MEM, after which, each drop (15 μL) of the complex solution was deposited on a parafilm (Bemis, HS234526C). The grids (Electron Microscopy Sciences, 71137) were placed on top of the drops for 5 min and then the excess liquid on the grid was removed with filter paper and air dried for 2 h for the TEM measurement. The TEM measurements were carried out under vacuum conditions.

U87MG cells = experiment: 2D cytotoxicity assay, 24 h DLI & no wash, SRB endpoint; format: cell-based, human; settings: normoxic 2D monolayer U87MG; for PI: mixture of Δ and Λ isomers (Figure S34a); for EC50: mixture of Δ and Λ isomers, green light 520 nm, 13.1 J/cm^2 (Figure S34a), read-out: EC50,light
Procedure: For each complex, two identical plates were prepared, one of which was irradiated with light, while the other was used as a dark control. […] Finally, at t = 96 h, 100 μL of cold trichloroacetic acid (10% w/v) was added to each well to fix the cells, and all plates were then transferred to a 4 °C refrigerator for 48 h before performing an SRB cell quantification endpoint assay.[72] Trichloroacetic acid was first removed and each plate was gently washed with demi water 3–5 times. Then, each well was dried in the air, and 100 μL of 0.6% SRB solution (0.6% w/v in 1% v/v acetic acid/H2O solution) was added into each well where it was allowed to stain for 30 min. Then, the plates were washed 3–5 times using an acetic acid solution (1% v/v). Once the plate was washed it was allowed to dry overnight. Then, 200 μL of 10 mM Tris base buffer was added to each well and the plate was allowed to sit on an orbital shaker for 0.5–16 h. After mixing, the absorbance of each well was determined by an M1000 Tecan Reader, reading at 510 nm. All experiments were conducted in independent biological triplicate. The obtained data were analyzed with Graphpad Prism 5 using the dose–response two-parameter Hill slope equation (eq 1) to obtain the half-maximal effective concentrations EC50 (defined as the concentration of drug that kills 50% of cells, compared to the untreated control). [drawing 1] 1

[2] = Biodistribution of Ru by ICP-OES; format: in vivo, mice; settings: for Ru content, Heart / Ru content, Kidney / Ru content, Liver / Ru content, Lung / Ru content, Spleen / Ru content, Tumor: U87MG tumor-bearing nude mice, ICP-OES, n = 3, ± SD
Procedure: (§1) All animal studies were approved by the Institutional Animal Care and Use Committee of the US National Institutes of Health and were performed according to the relevant guidelines (8th edition, 2011). Female BALB/c nude mice (6 weeks old) were purchased from Shanghai SLAC Laboratory Animal Co. LTD (Shanghai, China). Tumor-bearing mice were obtained by subcutaneously injecting U87MG tumor cells (2 × 10^6 cells per mouse, dispersed in 100 μL of FBS) into the right hind limb and waiting for 15 days until the tumor volume reached 50–100 mm^3.
The Blab/c nude mice bearing U87MG tumors were randomly assigned to two groups (N = 15) and received an intravenous injection of [1]Cl2 (7.7 mg/kg) or [2]Cl2 (5 mg/kg) at the same molar dose. Then, the mice were sacrificed at 2, 6, 12, 18, and 24 h post-injection (each time point contained 3 mice). The main organs (heart, liver, spleen, kidney, lung) and tumor tissue were dissected. Then, around 1 g of organs and tumors was lysed in a 7 mL mixture solution containing 5 mL of 65% HNO3 and 2 mL of 30% (w/w) H2O2 at 100 °C. After 12 h, all solutions had evaporated, and 5 mL of aqueous solution containing 2% HNO3 was added. The Ru content in all samples was measured by ICP-OES (JY-Horiba ICP-OES Ultima 2).

subcutaneous U87MG tumor = experiment: In vivo tumor inhibition study; set-up: species or system mice; settings: for TUNEL staining of tumor slices: day 7, combined with 520 nm laser irradiation; for effect of light irradiation on tumor growth, light group compared to dark group: single i.v. dose day 0 ([1]Cl2 7.7 mg/kg, [2]Cl2 5 mg/kg), 520 nm laser 60 J/cm^2 at DLI 12 h, tumor volume over 15 days
Procedure: as §1
The mice bearing U87MG solid tumors were first randomly divided into 6 groups (N = 5): PBS, light, [1]Cl2, [2]Cl2, [1]Cl2 + light, and [2]Cl2 + light. The injectable solution of [1]Cl2 or [2]Cl2 was obtained by diluting the stock solution of the compound in DMSO (10 mg/mL) 10 times by RPMI-1640 medium containing 10% FBS, 100 units/mL penicillin, and 100 μg/mL streptomycin. The injection doses of [1]Cl2 and [2]Cl2 were set as 7.7, 5 mg/kg, respectively (injection volume = 100 μL of the same molar weight of Ru in the last four groups). In groups 2, 5, and 6, laser irradiation (520 nm, 100 mW/cm^2, 5 min) was carried out twice at 12 h post-injection, with a 5 min interval. Accordingly, the total laser dose for each illumination was 100 mW/cm^2, 10 min, and 60 J/cm^2. Treatments in all groups were carried out only once on day 0. Digital photos of tumor-bearing mice, the tumor size (length and width, measured with a caliper), and mouse body weight in all groups were recorded every third day. The tumor volume was calculated according to the standard formula: 0.5 × length × width^2. Both the average tumor volume and body weight were followed for 15 days. On day 7, one mouse from each group was sacrificed and then the tumor tissue was dissected and fixed with 10% paraformaldehyde. The tumor cell damage and apoptosis and necrosis conditions were evaluated by H&E or TUNEL stained protocols. On day 15 (the end of the tumor treatment period), all nude mice were humanly sacrificed, and the main organs (heart, liver, spleen, kidney, and lung) and tumors were resected. Digital photographs of tumors in each group were immediately obtained. All normal tissues were fixed with 10% paraformaldehyde and further analyzed in accordance with the H&E staining protocol, to estimate their off-target side effect after various treatments.

[3] = 2 h after i.v. injection of [1]Cl2 7.7 mg/kg or [2]Cl2 5 mg/kg
[4] = 6 h after i.v. injection of [1]Cl2 7.7 mg/kg or [2]Cl2 5 mg/kg
[5] = 12 h after i.v. injection of [1]Cl2 7.7 mg/kg or [2]Cl2 5 mg/kg
[6] = 18 h after i.v. injection of [1]Cl2 7.7 mg/kg or [2]Cl2 5 mg/kg
[7] = 24 h after i.v. injection of [1]Cl2 7.7 mg/kg or [2]Cl2 5 mg/kg

Compound	PI (U87MG cells)	EC50 (U87MG cells)	Ru content, Heart [2, 3]	Ru content, Kidney [2, 3]	Ru content, Liver [2, 3]	Ru content, Lung [2, 3]	Ru content, Spleen [2, 3]	Ru content, Tumor [2, 3]	Ru content, Heart [2, 4]	Ru content, Kidney [2, 4]	Ru content, Liver [2, 4]	Ru content, Lung [2, 4]	Ru content, Spleen [2, 4]	Ru content, Tumor [2, 4]	Ru content, Heart [2, 5]	Ru content, Kidney [2, 5]	Ru content, Liver [2, 5]	Ru content, Lung [2, 5]	Ru content, Spleen [2, 5]	Ru content, Tumor [2, 5]	also measured
CSCc1ccccn1.[Cl-].[Cl-].[Ru+2].c1ccc(-c2ccnc3c2ccc2c(-c4ccccc4)ccnc23)cc1.c1ccc(-c2ccnc3c2ccc2c(-c4ccccc4)ccnc23)cc1 [[2]Cl2, rac-[Ru(Ph2phen)2(mtmp)]Cl2, reference compound]	6	300 nM	2.0 ± 0.3 %ID/g	3.2 ± 0.4 %ID/g	40.5 ± 3.3 %ID/g	1.5 ± 0.3 %ID/g	4.6 ± 0.4 %ID/g	1.8 ± 0.3 %ID/g	1.9 ± 0.5 %ID/g	2.0 ± 0.4 %ID/g	29.5 ± 1.9 %ID/g	1.6 ± 0.2 %ID/g	2.2 ± 0.5 %ID/g	6.5 ± 0.5 %ID/g	1.8 ± 0.3 %ID/g	1.7 ± 0.2 %ID/g	16.3 ± 3.3 %ID/g	1.7 ± 0.2 %ID/g	2.2 ± 0.3 %ID/g	12.3 ± 1.5 %ID/g	nanoparticle formation (DLS) [1]: not; Ru content, Heart [2, 6]: 1.7 ± 0.2 %ID/g; Ru content, Kidney [2, 6]: 1.9 ± 0.2 %ID/g; Ru content, Liver [2, 6]: 14.6 ± 2.3 %ID/g; Ru content, Lung [2, 6]: 1.7 ± 0.1 %ID/g; Ru content, Spleen [2, 6]: 1.6 ± 0.2 %ID/g; Ru content, Tumor [2, 6]: 2.8 ± 0.6 %ID/g; Ru content, Heart [2, 7]: 1.7 ± 0.2 %ID/g; Ru content, Kidney [2, 7]: 1.5 ± 0.1 %ID/g; Ru content, Liver [2, 7]: 7.3 ± 0.8 %ID/g; Ru content, Lung [2, 7]: 1.7 ± 0.1 %ID/g; Ru content, Spleen [2, 7]: 1.7 ± 0.2 %ID/g; Ru content, Tumor [2, 7]: 1.7 ± 0.1 %ID/g; TUNEL staining of tumor slices (subcutaneous U87MG tumor): induced outstanding apoptosis of tumor cells; effect of light irradiation on tumor growth, light group compared to dark group (subcutaneous U87MG tumor; n = 5): statistically nonsignificant
[Ru(Ph2phen)2(κ^S,κ^N-(Ac-MRGDH-NH2))]Cl2 (sidechain bridge or staple) [[1]Cl2, mixture of diastereoisomers used for the in vivo study]	16	2400 nM	2.2 ± 0.4 %ID/g	3.2 ± 0.3 %ID/g	40.2 ± 2.8 %ID/g	1.5 ± 0.2 %ID/g	1.9 ± 0.1 %ID/g	2.0 ± 0.5 %ID/g	1.8 ± 0.3 %ID/g	2.0 ± 0.2 %ID/g	29.0 ± 1.6 %ID/g	1.6 ± 0.2 %ID/g	2.1 ± 0.5 %ID/g	7.3 ± 0.4 %ID/g	1.8 ± 0.2 %ID/g	1.7 ± 0.3 %ID/g	16.5 ± 3.5 %ID/g	1.6 ± 0.2 %ID/g	2.2 ± 0.4 %ID/g	15.7 ± 1.3 %ID/g	amount of ruthenium in the tumor higher than for the group treated with [2]Cl2 ([2]; 12 h after i.v. injection, same molar dose, P < 0.01): 28%; Ru content, Heart [2, 6]: 1.9 ± 0.2 %ID/g; Ru content, Kidney [2, 6]: 1.9 ± 0.2 %ID/g; Ru content, Liver [2, 6]: 14.4 ± 4.3 %ID/g; Ru content, Lung [2, 6]: 1.8 ± 0.3 %ID/g; Ru content, Spleen [2, 6]: 1.9 ± 0.3 %ID/g; Ru content, Tumor [2, 6]: 7.2 ± 0.5 %ID/g; Ru content, Heart [2, 7]: 1.8 ± 0.1 %ID/g; Ru content, Kidney [2, 7]: 1.8 ± 0.2 %ID/g; Ru content, Liver [2, 7]: 6.1 ± 1.2 %ID/g; Ru content, Lung [2, 7]: 1.7 ± 0.2 %ID/g; Ru content, Spleen [2, 7]: 1.7 ± 0.2 %ID/g; Ru content, Tumor [2, 7]: 4.1 ± 1.0 %ID/g; TUNEL staining of tumor slices (subcutaneous U87MG tumor): induced outstanding apoptosis of tumor cells; antitumor efficiency compared to [2]Cl2 + light (subcutaneous U87MG tumor; single i.v. dose 7.7 mg/kg + 520 nm laser 60 J/cm^2 at DLI 12 h, 15 days, n = 5): better antitumor efficiency; effect of light irradiation on tumor growth, light group compared to dark group (subcutaneous U87MG tumor; n = 5): much stronger tumor growth suppression
